The test system of data set [1] is Ba/F3-FL-TYK2-P760L cells. In words: Anti-proliferative assay in engineered Ba/F3 cells (Cell-Titer Glo, 72 h). Type of data set: cell-based. Particulars: 72 h compound treatment, concentration that causes 50% growth inhibition, read-out: Baf3-FL-T2P760L. The procedure, abridged:
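Ba/F3 cells carrying Tel-dimerization/JAK kinase fusion, IL-3-independent, in RPMI-1640 + 10% FBS; 9-point 3-fold dilutions from 20 µM (0.1% DMSO) added after 24 h, 72 h at 37 °C. Viability by Cell-Titer Glo ATP luminescence; % inhibition versus DMSO cells, blank-corrected, giving IC50.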

Data set [2] deals with T1, TYK2-JH2 domain (Homo sapiens, UniProt P29597).
T1 construct: JAK1-JH2 domain or TYK2-JH2 domain enzyme in assay buffer
T1 sequence (P29597 589-875 limits assumed): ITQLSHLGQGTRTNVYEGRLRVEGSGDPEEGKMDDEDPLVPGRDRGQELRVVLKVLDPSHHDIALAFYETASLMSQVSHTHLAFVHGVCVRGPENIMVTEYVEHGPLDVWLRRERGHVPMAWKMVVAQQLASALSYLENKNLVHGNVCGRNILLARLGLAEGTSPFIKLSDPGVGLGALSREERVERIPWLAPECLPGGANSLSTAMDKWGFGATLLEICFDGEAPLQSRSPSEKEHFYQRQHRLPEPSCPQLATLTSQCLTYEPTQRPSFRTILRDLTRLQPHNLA
In words: Binding activity test for JH2 domain of TYK2 (Tb-antibody/tracer FRET). Particulars: for IC50: JH2 domain enzyme, 60 min at 25°C, then 4°C overnight, read-out: TYK2 JH2 Binding IC50; for JAK1/TYK2 selectivity: ratio of JAK1 JH2 to TYK2 JH2 binding IC50. Put shortly: (§1)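 Competitive TR-FRET binding: compounds dispensed as an 11-point 3-fold dilution series, then Tb-labelled antibody and tracer added to the JH2 protein system. Incubated at 25°C, then overnight at 4°C; FRET signal read on Envision and IC50 (nM) derived.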

Data set [3] is described as follows: Microsomal metabolic stability assay. Type of data set: in vitro ADME. Particulars: human, liver microsomes, pH 7.4, 0.5 mg/mL microsomal protein, 1 µM test article, 2 mM NADPH; for microsomal CLint at 1 µM: read-out: Human LM Clint; for half-life at 1 µM: read-out: Human LM T1/2. The protocol: Microsomes were pre-incubated with test compound or control compounds for 5 min at 37°C in 100 mM potassium phosphate buffer, pH 7.4, 1.0 mM EDTA. The reaction was initiated by addition of 15 µL of the NADPH regenerating system to 30 µL of each incubation mixture per time point. The final incubation condition was composed of 0.5 mg/mL microsomal protein, 1 µM test article/positive control, 2 mM NADPH. The 0-minute samples were prepared by addition of a 30 µL aliquot of each incubation mixture to 135 µL quench reagent to precipitate proteins. And then a 15 µL aliquot of the NADPH regenerating system was added. At 5, 15, 30 and 45 minutes, the reaction will be stopped by the addition of cold acetonitrile solution containing internal standard. The samples taken at all time points were centrifuged at 5000×g for 15 minutes. 50 µL of supernatant are taken into 96-well assay plates pre-added with 50 µL ultrapure water, and then analyzed by LC/MS/MS.
Concentrations of test articles, control compounds in the samples were determined by using LC/MS/MS method. Plotting of the chromatograms and peak area integrations are carried out by Analyst (AB Sciex).
In the determination of the in vitro elimination constant (ke) of the control compounds, the analyte/internal standard peak area ratios will be converted to percentage remaining (%Remaining) with the following equation: %Remaining = (Peak area ratio of analyte to IS at each time point)/(Peak area ratio of analyte to IS at t = 0) × 100% [formula]
The CLint of microsomes was calculated using the formula: CLint (mic)=0.693/T1/2 /mg microsome protein per mL. The slope was measured by the natural logarithm of the percentage of the residual compound and time, T1/2 was calculated according to the following formula. T = (0.693)/(−slope) [formula]

For data set [4], the target named is T2, JAK1-JH2 domain (Homo sapiens, UniProt P23458).
T2 construct: JAK1-JH2 domain or TYK2-JH2 domain enzyme in assay buffer
T2 sequence (P23458 583-855 limits assumed): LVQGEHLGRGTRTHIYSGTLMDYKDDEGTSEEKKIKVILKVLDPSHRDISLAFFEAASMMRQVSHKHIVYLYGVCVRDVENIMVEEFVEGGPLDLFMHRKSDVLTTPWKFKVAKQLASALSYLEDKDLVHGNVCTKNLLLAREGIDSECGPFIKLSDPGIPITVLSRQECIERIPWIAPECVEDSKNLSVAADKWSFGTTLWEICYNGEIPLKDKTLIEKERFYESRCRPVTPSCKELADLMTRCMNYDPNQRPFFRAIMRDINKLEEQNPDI
In words: Binding activity test for JH2 domain of JAK1 (Tb-antibody/tracer FRET). Particulars: JH2 domain enzyme; 60 min at 25°C, then 4°C overnight; read-out: JAK1 JH2 Binding IC50. The procedure, abridged: as §1

The structures appear in SMILES notation. Like-named read-outs stand apart in the source and are kept apart here.

Turning to `CCn1nc(Nc2cc(NC(=O)C3CC3)ncc2C(=O)OC)c2c(OC)c(C(OC)C(F)(F)F)ccc21` (single isomer, unassigned) [Example 66B, Methyl (S*)-6-(cyclopropanecarboxamido)-4-((1-ethyl-4-methoxy-5-(2,2,2-trifluoro-1-methoxyethyl)-1H-indazol-3-yl)amino)nicotinate], the IC50 in data set [1] (Mus musculus, BaF3, 72 h) stood at 12.5 nM; in data set [2], 0.13 nM; in data set [4], 90.7 nM. For the same compound, the JAK1/TYK2 selectivity in data set [2] was 719.87. Also, the microsomal CLint at 1 µM in data set [3] was determined as 14.2 µL/min/mg. The half-life at 1 µM in data set [3] is 1.62 h.

Consider `[2H]C([2H])([2H])NC(=O)c1cnc(NC(=O)[C@@H]2C[C@@H]2F)cc1Nc1cnn2ccc(COC)c(OC)c12` [Example 17, 6-((1S,2S)-2-fluorocyclopropane-1-carboxamido)-4-((4-methoxy-5-(methoxymethyl)pyrazolo[1,5-a]pyridin-3-yl)amino)-N-(methyl-d3)nicotinamide], for which, in data set [1] (Mus musculus, BaF3, 72 h), the IC50 was determined as 84.3 nM. In data set [2], the IC50 was found to be 0.102 nM and the JAK1/TYK2 selectivity was found to be 125.0. In data set [3], the microsomal CLint at 1 µM came out at 12.3 µL/min/mg and the half-life at 1 µM turned out to be 1.87 h. Further, the IC50 in data set [4] amounted to 12.7 nM.

`[2H]C([2H])([2H])NC(=O)c1cnc(NC(=O)C2CC2)cc1Nc1cnn2cnc(OC)c(OC)c12` [Example 35, 6-(Cyclopropanecarboxamido)-4-((4,5-dimethoxypyrazolo[1,5-c]pyrimidin-3-yl)amino)-N-(methyl-d3)nicotinamide]: in data set [1] (Mus musculus, BaF3, 72 h), the IC50 turned out to be 2340 nM. Also, in data set [2], the IC50 was 8.27 nM and the JAK1/TYK2 selectivity turned out to be 11.2. Also, in data set [3], the microsomal CLint at 1 µM worked out at 5.72 µL/min/mg and the half-life at 1 µM stood at 4.04 h. In data set [4], the IC50 is 92.3 nM.

In the case of `[2H]C([2H])([2H])NC(=O)c1cnc(NC(=O)C2CC2)cc1Nc1cnn2cnc(C(C)C(F)(F)F)c(OC)c12` (stereo not drawn) [Example 37, 6-(Cyclopropanecarboxamido)-4-((4-methoxy-5-(1,1,1-trifluoropropan-2-yl)pyrazolo[1,5-c]pyrimidin-3-yl)amino)-N-(methyl-d3)nicotinamide], the IC50 in data set [1] (Mus musculus, BaF3, 72 h) was 768 nM; in data set [2], 1.65 nM; in data set [4], 111 nM. The JAK1/TYK2 selectivity in data set [2] is listed as 67.1. Moreover, the microsomal CLint at 1 µM in data set [3] was 12.3 µL/min/mg. In data set [3], the half-life at 1 µM amounted to 1.88 h.

`[2H]C([2H])([2H])O[C@@H](c1ccc2c(c(Nc3cc(NC(=O)C4CC4)ncc3C(=O)OC)nn2C([2H])([2H])[2H])c1OC)C(F)(F)F` [Example 53B, Methyl (S)-6-(cyclopropanecarboxamido)-4-((4-methoxy-1-(methyl-d3)-5-(2,2,2-trifluoro-1-(methoxy-d3)ethyl)-1H-indazol-3-yl)amino)nicotinate]: the IC50 in data set [1] (Mus musculus, BaF3, 72 h) was 2.84 nM. Further, in data set [2], the IC50 amounted to 0.15 nM. In data set [3], the microsomal CLint at 1 µM worked out at 13.2 µL/min/mg and the half-life at 1 µM came out at 1.75 h.

On to `COC(=O)c1cnc(NC(=O)C2CC2)cc1Nc1nsc2ccc(C(OC)C(F)(F)F)c(OC)c12` (stereo not drawn) [Example 67, Methyl 6-(cyclopropanecarboxamido)-4-((4-methoxy-5-(2,2,2-trifluoro-1-methoxyethyl)benzo[d]isothiazol-3-yl)amino)nicotinate], for which the IC50 in data set [1] (Mus musculus, BaF3, 72 h) stood at 2.5 nM. In addition, the IC50 in data set [2] came out at 0.15 nM. Moreover, in data set [3], the microsomal CLint at 1 µM came to 18.3 µL/min/mg and the half-life at 1 µM was 1.26 h.

As for `[2H]C([2H])([2H])OC(c1ccc2c(c(Nc3cc(NC(=O)C4CC4)ncc3C(=O)OC)nn2CCOC)c1OC)C(F)(F)F` (stereo not drawn) [Example 157, Methyl 6-(cyclopropanecarboxamido)-4-((4-methoxy-1-(2-methoxyethyl)-5-(2,2,2-trifluoro-1-(methoxy-d3)ethyl)-1H-indazol-3-yl)amino)nicotinate], the IC50 in data set [1] came to 9.21 nM. Further, the IC50 in data set [2] is 0.15 nM. Besides, in data set [3], the microsomal CLint at 1 µM came out at 25.8 µL/min/mg and the half-life at 1 µM is 0.897 h.
